Experimental data taken from article PMC10487708, “Chlorin E6-Curcumin-Mediated Photodynamic Therapy Promotes an Anti-Photoaging Effect in UVB-Irradiated Fibroblasts” (International Journal of Molecular Sciences, 2023).
Read-outs that look alike come from different tables or passages of the source. Values belong to the compound of their own block, whether it stands above or below them.

Tests used:
[1] = ORAC (oxygen radical absorbance capacity) assay; type: biochemical; details: Trolox equivalent
Method: The ORAC assay is based on the scavenging of peroxyl radicals generated by 2,2′-azobis(2-methylpropioamidine) dihydrochloride (AAPH), which prevents the degradation of the fluorescein probe. The ORAC values were calculated as the area under the curve (AUC) and expressed as µM of Trolox equivalent (TE).

[2] = MTT cytotoxicity of Ce6-curcumin derivative PDT in BALB/c 3T3 cells; type: cell-based, mouse; details: mouse, BALB/c 3T3 cells; 3 h treatment, 660 nm 20 J/cm^2, MTT after 24 h, tested 200 to 6400 nM; read-out: IC50 cytotoxicity against BALB/c 3T3 cells
Method: MTT assay was used to evaluate viability after 24 h. IC50 values were calculated using GraphPad Prism 5 software.
(§1) Hs68 and BALB/c 3T3 cell viability was measured using a 3-[4,5-dimethylthylthiazol-2-yl]-2,5 diphenyl tetrazolium bromide (MTT) assay. The cells were cultured in 24-well plates at a density of 3 × 10^4 cells per well or BALB/c 3T3 cells at a density of 1 × 10^4 cells per well. […] The Hs68 cells were then exposed to LED light (660 nm; 89 W/m^2; 20 J/cm^2) for 37 min 27 s and incubated for 3 h. […] The cells were washed and treated with MTT, after which the plates were incubated at 37 °C in the dark for 2 h. After the formation of formazan, 100 µL of DMSO was added, and the absorbance was measured at 570 nm using a microtiter plate reader (Thermo-scientific, Skanlt software 5.0, Waltham, MA, USA)

[3] = test system: UVB-irradiated BALB/c 3T3 cells; assay: MTT cell viability of UVB-irradiated BALB/c 3T3 cells; type: cell-based, mouse; details: UVB 200 mJ/cm^2, 0.2–8 μM, 24 h
Method: To investigate the proper dose of UVB irradiation, BALB/c 3T3 cells were exposed to different doses of UVB (50, 100, 200, 800, 1600 mJ/cm^2) for 24 h. […] Therefore, the dose of 200 mJ/cm^2 was used in the subsequent in vitro studies to evaluate the protective effect of Ce6-PDT. The effect of Ce6-curcumin derivatives on BALB/c 3T3 cell viability was evaluated with the MTT assay.
Figure 6 The effect of Ce6-curcumin derivatives on UVB-irradiated BALB/c 3T3 cells. (A) Cell viability of BALB/c 3T3 cells irradiated with different doses of UVB (50, 100, 200, 800, 1600 mJ/cm^2) for 24 h. […] Data were represented as mean ± SD from at least three independent experiments and analyzed by one-way ANOVA with Tukey’s post hoc test, * p < 0.01, compared with UVB-treated groups.
BALB/c 3T3 cells were seeded at a density of 1 × 10^4 cells/well in 96-well plates for 24 h. The culture medium was replaced with phosphate-buffered saline (PBS), and the cells were pretreated with UVB (200 mJ/cm^2) before being incubated for 24 h incubation in an FBS-free medium containing different concentrations of Ce6-curcumin derivatives. Cell viability was measured by MTT assay.

[4] = test system: p-ERK, p-p38, JNK MAPK, p-NF-κB p65, p-c-JUN; assay: Western blot of MAPK, NF-κB and c-JUN signaling in UVB-induced 3T3 fibroblasts; type: cell-based, mouse; details: 3T3 cells; for phosphorylation level of JNK MAPK / phosphorylation levels of ERK and p38 MAPKs: PDT after UVB treatment
Text: One of the major factors of UVB-induced skin aging is inflammation-mediated skin aging. In UVB-induced skin photoaging, increased intracellular ROS can promote MMP production by activating the MAPK, AP-1, and NF-κB pathways. […] Ce6-diPEG-curcumin-PDT and Ce6-propane-curcumin-PDT lowered the phosphorylation levels of ERK and p38 MAPKs but not those of JNK MAPK.
Figure 9 Effect of Ce6-curcumin derivatives-PDT on MAPK, NF-κB and c-JUN signaling proteins. Protein expressions of p-p38, p-38, p-ERK, ERK, p-c-JUN, c-JUN, p-p65 and p65 in the UVB-induced murine 3T3 fibroblast cell line after Ce6-diPEG-curcumin (150 and 200 μΜ) and Ce6-propane-curcumin (75 and 100 μΜ)-PDT treatment. Representative bars are expressed as mean only.
The cells were lysed with RIPA lysis buffer containing protease inhibitor cocktails (Gen-DEPOT, Katy, TX, USA). Cell lysates were vortexed and centrifuged at 13,000 rpm for 15 min at 4 °C. Protein concentration was determined using the Bradford protein assay kit, and the same amount of protein was separated by SDS-PAGE gel. Then, proteins were transferred to a polyvinylidene fluoride (PVDF) membrane. Further, the membranes were blocked with a blocking solution containing 5% skim milk in Tris-buffered saline containing Tween 20 (TBST) for 1 h and incubated overnight with the primary antibody diluted in 5% skim milk in TBST at 4 °C. Then, the membrane was rinsed with TBST for 30 min and incubated with horseradish peroxidase-conjugated secondary antibodies in a blocking solution for 1 h. All bands were visualized by using an enhanced chemiluminescence (ECL) kit (Pierce, Rockford, IL, USA) under a luminescent image analyzer (Amersham, GE Healthcare, Chicago, IL, USA). The primary antibodies against MMP-1 were obtained from Thermo Fischer Scientific Inc. (NYSE: TMO). Antibodies directed against p-p65, p65, p-p38, p38, p-ERK, ERK, p-c-JUN, and c-JUN were purchased from Cell Signaling Technology Inc. (Beverley, MA, USA). COX-2 and β-Actin antibodies were from Santa Cruz Biotechnology (Santa Cruz, CA, USA), while TNF-α antibodies were procured from Novus Biologicals, Inc. (Centennial, CO, USA).

[5] = test system: Hs68 cells; assay: MTT cell viability of Hs68 cells with or without LED light; type: cell-based, human; details: for IC50: Homo sapiens, light or radiation study, Hs68 cells; for cytotoxicity for Hs68 cells: dark, up to 1000 nM
Method: Data were represented as mean ± SD from at least three independent experiments and analyzed by one-way ANOVA with Tukey’s post hoc test, * p < 0.01, compared with vehicle-treated control.
as §1

[6] = ABTS radical scavenging activity; type: biochemical
Method: […] in 2.5 mM potassium persulfate for more than 16 h to develop 7 mM 2,2′-azinobis-(3-ethylbenzothiazoline-6-sulfonic acid diammonium salt) (ABTS), and ethanol was diluted to obtain an absorbance of 0.3 at 620 nm. Each composite sample was diluted by concentration, and 100 μL of the sample was put into each well along with 50 μL each of ABTS reagent and solvent; reacted at room temperature for 10 min, and absorbance was measured at 620 nm. ABTS activity inhibition (%) = 100 − [test group-blank]/(control group-blank) × 100]

[7] = LED 660 nm 20 J/cm^2, MTT, read-out: Phototoxicity (IC50)
[8] = without LED irradiation, MTT, read-out: Dark Toxicity (IC50)
[9] = LED light, read-out: LED Condition (EC50, μM) ABTS radical scavenging
[10] = dark, read-out: Dark Condition (EC50, μM) ABTS radical scavenging

EC50 [6, 9]: 34.9 ± 8.16 µM
EC50 [6, 10]: 18.9 ± 3.04 µM
Structure (SMILES): C=Cc1c(C)c2cc3nc(c(CC(=O)OC)c4[nH]c(cc5nc(cc1[nH]2)C(C)=C5CC)c(C)c4C(=O)NCCCNC(=O)CCCC(=O)Oc1ccc(/C=C/C(=O)CC(=O)/C=C/c2ccc(O)c(OC)c2)cc1OC)C(CCC(=O)OC)C3C (stereo not drawn) [Ce6-propane-curcumin]
ORAC LED Condition (TE, μM) ([1]; LED 20 J/cm^2, 1 μM compound): 2.78 µM
ORAC LED Condition (TE, μM) ([1]; LED 20 J/cm^2, 10 μM compound): 30.66 µM
ORAC Dark Condition (TE, μM) ([1]; 1 μM compound): 20.11 µM
ORAC Dark Condition (TE, μM) ([1]; 10 μM compound): 26.83 µM
IC50 [2]: 2.04 µM
cell viability of UVB-irradiated BALB/c 3T3 cells [3]: not affected
UVB-induced increases in p-NF-κB p65 and p-c-JUN ([4]; 75 and 100 μM followed by laser irradiation): greatly reversed this trend
phosphorylation level of JNK MAPK [4]: not
phosphorylation levels of ERK and p38 MAPKs [4]: lowered
IC50 [5, 7]: ≥ 1 µM
IC50 [5, 8]: ≥ 1 µM
cytotoxicity for Hs68 cells [5]: almost no cytotoxicity
phototoxicity toward human dermal fibroblasts, Hs68 ([5]; with PDT, up to a dose of 1000 nM): no phototoxicity

EC50 [6, 9]: 22.3 ± 2.62 µM
ABTS EC50 value compared to the standard antioxidant 5-ALA hydrochloride ([6]; dark): ~74%
EC50 [6, 10]: 15.51 ± 0.01 µM
Structure (SMILES): C=Cc1c(C)c2cc3nc(c(CC(=O)OC)c4[nH]c(cc5nc(cc1[nH]2)C(C)=C5CC)c(C)c4C(=O)NCCCOCCOCCOCCCNC(=O)CCCC(=O)Oc1ccc(/C=C/C(=O)CC(=O)/C=C/c2ccc(O)c(OC)c2)cc1OC)C(CCC(=O)OC)C3C (stereo not drawn) [Ce6-diPEG-curcumin]
ORAC LED Condition (TE, μM) ([1]; LED 20 J/cm^2, 1 μM compound): 0.85 µM
ORAC LED Condition (TE, μM) ([1]; LED 20 J/cm^2, 10 μM compound): 27.98 µM
ORAC Dark Condition (TE, μM) ([1]; 1 μM compound): 20.85 µM
ORAC Dark Condition (TE, μM) ([1]; 10 μM compound): 30.32 µM
IC50 [2]: 0.83 µM
concentration from which cytotoxicity was shown in UVB-irradiated BALB/c 3T3 cells [3]: ≥ 4 µM
UVB-induced increases in p-NF-κB p65 and p-c-JUN ([4]; 150 and 200 μM followed by laser irradiation): greatly reversed this trend
phosphorylation level of JNK MAPK [4]: not
phosphorylation levels of ERK and p38 MAPKs [4]: lowered
IC50 [5, 7]: 0.693 µM
IC50 [5, 8]: ≥ 1 µM
cytotoxicity for Hs68 cells [5]: almost no cytotoxicity
